Results on 28 compounds are retold here after paper PMC3469757 (Journal of medicinal chemistry, 2012).

pIC50: −log10 of the molar value. Some results are limits rather than exact numbers.

Usually pIC50 stands for −log10 of the IC50, conventionally taken in molar units.

T1 sequence (Q8NER1 whole entry): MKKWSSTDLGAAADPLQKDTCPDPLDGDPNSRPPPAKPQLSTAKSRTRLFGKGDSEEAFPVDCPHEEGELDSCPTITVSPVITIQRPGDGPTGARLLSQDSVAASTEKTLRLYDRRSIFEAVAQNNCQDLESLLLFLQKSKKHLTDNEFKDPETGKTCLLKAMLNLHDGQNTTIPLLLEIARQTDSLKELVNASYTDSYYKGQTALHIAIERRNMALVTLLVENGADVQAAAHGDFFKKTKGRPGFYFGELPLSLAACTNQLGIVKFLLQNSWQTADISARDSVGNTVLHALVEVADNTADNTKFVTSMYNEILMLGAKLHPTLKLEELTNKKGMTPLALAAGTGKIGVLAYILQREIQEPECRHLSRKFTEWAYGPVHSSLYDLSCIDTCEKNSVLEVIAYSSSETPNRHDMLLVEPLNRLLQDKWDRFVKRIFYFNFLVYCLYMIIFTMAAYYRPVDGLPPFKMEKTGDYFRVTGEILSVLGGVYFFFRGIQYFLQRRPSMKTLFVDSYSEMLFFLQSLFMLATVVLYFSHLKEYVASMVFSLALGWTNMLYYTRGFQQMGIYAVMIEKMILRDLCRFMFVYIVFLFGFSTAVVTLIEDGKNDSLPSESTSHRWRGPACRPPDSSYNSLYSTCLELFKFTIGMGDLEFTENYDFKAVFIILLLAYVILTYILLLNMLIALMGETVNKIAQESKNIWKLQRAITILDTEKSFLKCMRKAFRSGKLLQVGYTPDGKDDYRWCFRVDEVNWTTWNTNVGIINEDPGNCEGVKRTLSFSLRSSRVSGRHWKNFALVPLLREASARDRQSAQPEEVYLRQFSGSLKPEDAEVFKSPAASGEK

One test concerns the target T1, human TRPV1 (Homo sapiens, UniProt Q8NER1). Put plainly: Capsaicin assay. The test is classed as cell-based. To be noted: hTRPV1 in CHO cells.
On to `CC(C(=O)NCc1ccc(C(F)(F)F)nc1Nc1ccc(Cl)cc1)c1ccc(NS(C)(=O)=O)c(F)c1` (stereo not shown) [Compound 19, N-((2-((4-Chlorophenyl)amino)-6-(trifluoromethyl)pyridin-3-yl)methyl)-2-(3-fluoro-4-(methylsulfonamido)phenyl)propanamide], for which the “hTRPV1 antagonism in words” value was “devoid of activity”.

Turning to `CC(C(=O)NCc1ccc(C(F)(F)F)nc1)c1ccc(NS(C)(=O)=O)c(F)c1` (stereo not shown) [Compound 12, 2-(3-Fluoro-4-(methylsulfonamido)phenyl)-N-((6-(trifluoromethyl)pyridin-3-yl)methyl)propanamide], the “hTRPV1 antagonism in words” value is on record as “weak antagonist”. The same measure, in the same setting: to `CC(C(=O)NCc1ccc(C(F)(F)F)nc1N1CCS(=O)(=O)CC1)c1ccc(NS(C)(=O)=O)c(F)c1` (stereo not shown) [Compound 99, N-((2-(1,1-Dioxidothiomorpholino)-6-(trifluoromethyl)pyridin-3-yl)methyl)-2-(3-fluoro-4-(methylsulfonamido)phenyl)propanamide] belongs “only weak potency”.

Still in this test, the particulars now being: hTRPV1 in CHO cells, versus compound 2.
In the case of `CC(C(=O)NCc1ccc(C(F)(F)F)nc1N1CCCCC1)c1ccc(NS(C)(=O)=O)c(F)c1` (stereo not shown) [Compound 45, 2-(3-Fluoro-4-(methylsulfonamido)phenyl)-N-((2-(piperidin-1-yl)-6-(trifluoromethyl)pyridin-3-yl)methyl)propanamide], the “fold more potent than parent 2 for capsaicin antagonism” value worked out at 46 fold. The same measure, in the same setting: to `CC(C(=O)NCc1ccc(C(F)(F)F)nc1N1CCOCC1)c1ccc(NS(C)(=O)=O)c(F)c1` (stereo not shown) [Compound 97, 2-(3-Fluoro-4-(methylsulfonamido)phenyl)-N-((2-morpholino-6-(trifluoromethyl)pyridin-3-yl)methyl)propanamide] belongs 15 fold.

Still in this test, the particulars now being: hTRPV1 in CHO cells, versus compound 3.
With `C[C@H](C(=O)NCc1ccc(C(F)(F)F)nc1N1CCCCC1)c1ccc(NS(C)(=O)=O)c(F)c1` [Compound 45S, (S)-2-(3-Fluoro-4-(methylsulfonamido)phenyl)-N-((2-(piperidin-1-yl)-6-(trifluoromethyl)pyridin-3-yl)methyl)propanamide], the “fold more potent than lead 3 for capsaicin antagonism” value is “ca. 15 fold”.

The test is the same for the next values; noted with them: versus compound 17.
With `CC(C(=O)NCc1ccc(C(F)(F)F)nc1N(C)c1ccccc1)c1ccc(NS(C)(=O)=O)c(F)c1` (stereo not shown) [Compound 32, 2-(3-Fluoro-4-(methylsulfonamido)phenyl)-N-((2-(methyl(phenyl)amino)-6-(trifluoromethyl)pyridin-3-yl)methyl)propanamide], the “fold increase in potency for CAP compared to phenylamino analogue 17” value amounted to 75 fold.

In a further test the target is T1, human TRPV1. Put plainly: pH assay. The test is classed as cell-based. To be noted: read-out: IC50 [pH]; hTRPV1 in CHO cells, activator pH 6.0 to 6.3.
On to `CC1CCCN1c1nc(C(F)(F)F)ccc1CNC(=O)[C@@H](C)c1ccc(NS(C)(=O)=O)c(F)c1` (stereo partly drawn) [Compound 34, (2S)-2-(3-Fluoro-4-(methylsulfonamido)phenyl)-N-((2-(2-methylpyrrolidin-1-yl)-6-(trifluoromethyl)pyridin-3-yl)methyl)propanamide], for which the pIC50 is under 5.00.

For the compound `CC(C(=O)NCc1ccc(C(F)(F)F)nc1N1CCC(=O)CC1)c1ccc(NS(C)(=O)=O)c(F)c1` (stereo not shown) [Compound 64, 2-(3-Fluoro-4-(methylsulfonamido)phenyl)-N-((2-(4-oxopiperidin-1-yl)-6-(trifluoromethyl)pyridin-3-yl)methyl)propanamide], the negative logarithm of the IC50 (pIC50) is under 5.00. On the same count and under the same terms, to `CC(C(=O)NCc1ccc(C(F)(F)F)nc1N1CCC(N2CCCCC2)CC1)c1ccc(NS(C)(=O)=O)c(F)c1` (stereo not shown) [Compound 75, N-((2-([1,4'-Bipiperidin]-1'-yl)-6-(trifluoromethyl)pyridin-3-yl)methyl)-2-(3-fluoro-4-(methylsulfonamido)phenyl)propanamide] belongs under 5.00. Take `CC(C(=O)NCc1ccc(C(F)(F)F)nc1N1CCC(N2CCCC2)CC1)c1ccc(NS(C)(=O)=O)c(F)c1` (stereo not shown) [Compound 76, 2-(3-Fluoro-4-(methylsulfonamido)phenyl)-N-((2-(4-(pyrrolidin-1-yl)piperidin-1-yl)-6-(trifluoromethyl)pyridin-3-yl)methyl)propanamide]: the pIC50 is under 5.00.

Turning to `CC(C(=O)NCc1ccc(C(F)(F)F)nc1N1CCN(C2CCCCC2)CC1)c1ccc(NS(C)(=O)=O)c(F)c1` (stereo not shown) [Compound 83, N-((2-(4-Cyclohexylpiperazin-1-yl)-6-(trifluoromethyl)pyridin-3-yl)methyl)-2-(3-fluoro-4-(methylsulfonamido)phenyl)propanamide], the pIC50 was under 5.00. The same measure, in the same setting: to `CC(C(=O)NCc1ccc(C(F)(F)F)nc1NCc1cccnc1)c1ccc(NS(C)(=O)=O)c(F)c1` (stereo not shown) [Compound 25, 2-(3-Fluoro-4-(methylsulfonamido)phenyl)-N-((2-((pyridin-3-ylmethyl)amino)-6-(trifluoromethyl)pyridin-3-yl)methyl)propanamide] belongs under 5.00.

In the case of `C[C@H](C(=O)NCc1ccc(C(F)(F)F)nc1N1CCC[C@H]1C(=O)N(C)C)c1ccc(NS(C)(=O)=O)c(F)c1` [Compound 36, (S)-1-(3-(((S)-2-(3-Fluoro-4-(methylsulfonamido)phenyl)propanamido)methyl)-6-(trifluoromethyl)pyridin-2-yl)-N,N-dimethylpyrrolidine-2-carboxamide], the pIC50 is under 5.00. On the same count and under the same terms, for `CC(C(=O)NCc1ccc(C(F)(F)F)nc1NCc1ccncc1)c1ccc(NS(C)(=O)=O)c(F)c1` (stereo not shown) [Compound 26, 2-(3-Fluoro-4-(methylsulfonamido)phenyl)-N-((2-((pyridin-4-ylmethyl)amino)-6-(trifluoromethyl)pyridin-3-yl)methyl)propanamide] the value was under 5.00. Turning to `CC(C(=O)NCc1ccc(C(F)(F)F)nc1N1CCN(c2ncccc2C(F)(F)F)CC1)c1ccc(NS(C)(=O)=O)c(F)c1` (stereo not shown) [Compound 95, 2-(3-Fluoro-4-(methylsulfonamido)phenyl)-N-((6-(trifluoromethyl)-2-(4-(3-(trifluoromethyl)pyridin-2-yl)piperazin-1-yl)pyridin-3-yl)methyl)propanamide], the pIC50 is under 5.00. With `CC(C(=O)NCc1ccc(C(F)(F)F)nc1N1CCC(O)CC1)c1ccc(NS(C)(=O)=O)c(F)c1` (stereo not shown) [Compound 65, 2-(3-Fluoro-4-(methylsulfonamido)phenyl)-N-((2-(4-hydroxypiperidin-1-yl)-6-(trifluoromethyl)pyridin-3-yl)methyl)propanamide], the negative logarithm of the IC50 (pIC50) is under 5.00. On to `O=C(/C=C/c1ccc(C(F)(F)F)nc1N1CCCCC1)Nc1ccc2cccnc2c1` [Compound 3, reference compound], for which the pIC50 was under 5.00.

With `CC(C)(C)c1ccc(CNC(=S)NCc2ccc(NS(C)(=O)=O)c(F)c2)cc1` [Compound 1, reference compound], the pIC50 is under 5.00.

Turning to `CC(C(=O)NCc1ccc(C(F)(F)F)nc1Nc1ccc(F)cc1)c1ccc(NS(C)(=O)=O)c(F)c1` (stereo not shown) [Compound 18, 2-(3-Fluoro-4-(methylsulfonamido)phenyl)-N-((2-((4-fluorophenyl)amino)-6-(trifluoromethyl)pyridin-3-yl)methyl)propanamide], the pIC50 is under 5.00.

Turning to `C[C@H](C(=O)NCc1ccc(C(F)(F)F)nc1N1CC[C@@H](O)C1)c1ccc(NS(C)(=O)=O)c(F)c1` [Compound 38, (S)-2-(3-Fluoro-4-(methylsulfonamido)phenyl)-N-((2-((R)-3-hydroxypyrrolidin-1-yl)-6-(trifluoromethyl)pyridin-3-yl)methyl)propanamide], the pIC50 was under 5.00. On to `CC(C(=O)NCc1ccc(C(F)(F)F)nc1N1CCN(c2ccncc2)CC1)c1ccc(NS(C)(=O)=O)c(F)c1` (stereo not shown) [Compound 92, 2-(3-Fluoro-4-(methylsulfonamido)phenyl)-N-((2-(4-(pyridin-4-yl)piperazin-1-yl)-6-(trifluoromethyl)pyridin-3-yl)methyl)propanamide], for which the pIC50 was under 5.00. With `CC(C(=O)NCc1ccc(C(F)(F)F)nc1)c1ccc(NS(C)(=O)=O)c(F)c1` (stereo not shown) [Compound 12, 2-(3-Fluoro-4-(methylsulfonamido)phenyl)-N-((6-(trifluoromethyl)pyridin-3-yl)methyl)propanamide], the pIC50 was under 5.00. Same read-out and setting: for `CC(C(=O)NCc1ccc(C(F)(F)F)nc1N1CCCCC1C)c1ccc(NS(C)(=O)=O)c(F)c1` (stereo not shown) [Compound 47, 2-(3-Fluoro-4-(methylsulfonamido)phenyl)-N-((2-(2-methylpiperidin-1-yl)-6-(trifluoromethyl)pyridin-3-yl)methyl)propanamide] the value was under 5.00; for `CC(C(=O)NCc1ccc(C(F)(F)F)nc1N1CCS(=O)(=O)CC1)c1ccc(NS(C)(=O)=O)c(F)c1` (stereo not shown) [Compound 99, N-((2-(1,1-Dioxidothiomorpholino)-6-(trifluoromethyl)pyridin-3-yl)methyl)-2-(3-fluoro-4-(methylsulfonamido)phenyl)propanamide], under 5.00; for `CC1CCCN(c2nc(C(F)(F)F)ccc2CNC(=O)C(C)c2ccc(NS(C)(=O)=O)c(F)c2)C1` (stereo not shown) [Compound 48, 2-(3-Fluoro-4-(methylsulfonamido)phenyl)-N-((2-(3-methylpiperidin-1-yl)-6-(trifluoromethyl)pyridin-3-yl)methyl)propanamide], under 5.00. The same measure, in the same setting: for `CC(C)OC1CCN(c2nc(C(F)(F)F)ccc2CNC(=O)C(C)c2ccc(NS(C)(=O)=O)c(F)c2)CC1` (stereo not shown) [Compound 70, 2-(3-Fluoro-4-(methylsulfonamido)phenyl)-N-((2-(4-isopropoxypiperidin-1-yl)-6-(trifluoromethyl)pyridin-3-yl)methyl)propanamide] the value was under 5.00.

For `CC(C(=O)NCc1ccc(C(F)(F)F)nc1NCc1ccccn1)c1ccc(NS(C)(=O)=O)c(F)c1` (stereo not shown) [Compound 24, 2-(3-Fluoro-4-(methylsulfonamido)phenyl)-N-((2-((pyridin-2-ylmethyl)amino)-6-(trifluoromethyl)pyridin-3-yl)methyl)propanamide], the negative logarithm of the IC50 (pIC50) was under 5.00.

As to `C[C@H](C(=O)NCc1ccc(C(F)(F)F)nc1N1CCC[C@H]1CO)c1ccc(NS(C)(=O)=O)c(F)c1` [Compound 35, (S)-2-(3-Fluoro-4-(methylsulfonamido)phenyl)-N-((2-((S)-2-(hydroxymethyl)pyrrolidin-1-yl)-6-(trifluoromethyl)pyridin-3-yl)methyl)propanamide], the pIC50 was under 5.00.

As for `CC(C(=O)NCc1ccc(C(F)(F)F)nc1N1CCN(C)CC1)c1ccc(NS(C)(=O)=O)c(F)c1` (stereo not shown) [Compound 82, 2-(3-Fluoro-4-(methylsulfonamido)phenyl)-N-((2-(4-methylpiperazin-1-yl)-6-(trifluoromethyl)pyridin-3-yl)methyl)propanamide], the pIC50 was under 5.00.

The test is the same for the next values; noted with them: versus compound 17.
Take `CC(C(=O)NCc1ccc(C(F)(F)F)nc1N(C)c1ccccc1)c1ccc(NS(C)(=O)=O)c(F)c1` (stereo not shown) [Compound 32, 2-(3-Fluoro-4-(methylsulfonamido)phenyl)-N-((2-(methyl(phenyl)amino)-6-(trifluoromethyl)pyridin-3-yl)methyl)propanamide]: the “fold increase in potency for pH compared to phenylamino analogue 17” value is recorded as 25 fold.
